Tests used:
[1] = Human liver microsome stability; format: in vitro ADME; conditions: pH 7.4; human liver microsomes, NADPH, 37° C.
Experimental: The compounds listed in Table 2 below were tested for metabolic stability in human liver microsomes as described below using a Biomek3000 (Beckman Coulter). There were dispensed 400 ILL of 1 mg/mL human liver microsomes (XENOTECH)/0.1 M potassium phosphate buffer (pH 7.4) into each well of a 96-well plate. A DMSO solution (4 μL) of 200 μM test compound was then added, and incubation was conducted until reaching 37° C. To this reaction mixture (200 IL) there was added a solution (200 μL) containing 2 mM NADPH (ORIENTAL YEAST)/0.1 M potassium phosphate buffer (pH 7.4) that had been incubated at 37° C. At 0 min, 5 min, 15 min or 30 min after addition, the reaction mixture (50 μL) was added to acetonitrile (100 μL) to stop the metabolic reaction. After the metabolic reaction was stopped, a 1 μM warfarin aqueous solution (50 μL) was added to each reaction mixture as an internal standard. […] The percent remaining relative to the amount of test compound at 0 min was calculated from the obtained peak area ratio of the test compound to internal standard. The elimination rate constant (ke) was calculated from the incubation time and percent remaining using the primary elimination rate equation, and the hepatic intrinsic clearance (CLint) was calculated using the formula shown below. […]

BRAF = biological target: T1, BRAF (Homo sapiens, UniProt P15056); assay: BRAF-inhibiting activity (time-resolved fluorescence-fluorescence resonance energy transfer assay); format: biochemical; conditions: MEK1, ATP-containing buffer
T1 construct: purchased Eurofins Genomics KK
T1 sequence (P15056 whole entry): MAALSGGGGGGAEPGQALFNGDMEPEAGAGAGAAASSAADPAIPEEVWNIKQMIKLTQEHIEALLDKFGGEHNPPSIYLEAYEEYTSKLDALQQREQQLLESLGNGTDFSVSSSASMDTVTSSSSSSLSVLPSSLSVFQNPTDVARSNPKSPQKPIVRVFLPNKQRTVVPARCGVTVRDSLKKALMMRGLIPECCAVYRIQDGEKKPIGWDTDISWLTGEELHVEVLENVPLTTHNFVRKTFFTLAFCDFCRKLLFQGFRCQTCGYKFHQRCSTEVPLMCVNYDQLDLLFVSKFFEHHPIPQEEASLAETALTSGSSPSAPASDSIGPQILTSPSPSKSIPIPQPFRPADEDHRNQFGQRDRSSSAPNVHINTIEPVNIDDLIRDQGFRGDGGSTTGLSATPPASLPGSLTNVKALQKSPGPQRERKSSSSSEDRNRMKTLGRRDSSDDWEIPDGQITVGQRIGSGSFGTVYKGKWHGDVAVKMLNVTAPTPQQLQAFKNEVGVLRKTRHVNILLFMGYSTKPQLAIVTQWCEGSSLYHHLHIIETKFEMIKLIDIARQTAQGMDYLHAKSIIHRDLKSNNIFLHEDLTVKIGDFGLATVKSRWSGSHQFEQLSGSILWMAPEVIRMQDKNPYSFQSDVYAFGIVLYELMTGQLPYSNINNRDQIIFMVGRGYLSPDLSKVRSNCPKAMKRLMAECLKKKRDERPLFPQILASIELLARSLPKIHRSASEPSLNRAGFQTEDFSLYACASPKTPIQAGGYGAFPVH
T1 sequence (Q02750 whole entry partner): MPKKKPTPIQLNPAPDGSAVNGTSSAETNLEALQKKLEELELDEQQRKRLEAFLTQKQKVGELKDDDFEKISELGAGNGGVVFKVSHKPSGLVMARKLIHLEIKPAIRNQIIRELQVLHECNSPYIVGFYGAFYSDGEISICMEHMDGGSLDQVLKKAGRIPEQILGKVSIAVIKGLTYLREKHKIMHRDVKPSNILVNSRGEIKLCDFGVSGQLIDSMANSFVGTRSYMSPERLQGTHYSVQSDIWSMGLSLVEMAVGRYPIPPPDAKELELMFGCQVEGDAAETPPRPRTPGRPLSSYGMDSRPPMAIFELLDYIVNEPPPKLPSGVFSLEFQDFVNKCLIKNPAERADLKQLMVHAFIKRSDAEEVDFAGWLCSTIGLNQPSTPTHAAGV
Experimental: The BRAF-inhibiting activity of the compounds listed in Table 2 below was evaluated by the time-resolved fluorescence-fluorescence resonance energy transfer assay as described below.

[2] = system: A549 human lung cancer cells; assay: Cell proliferation-inhibiting activity, A549 (CellTiter-Glo); format: cell-based; conditions: A549, 96 h

| IC50 (BRAF) [nM] | Compound | IC50 [2] [nM] | further results |
| --- | --- | --- | --- |
|  | NC(=O)c1cc(Cc2ccnc(NS(=O)(=O)NC3C4COCC43)c2F)c(F)c(F)c1Nc1ccc(I)cc1F (centres unmarked) [Sample A-22, 3,4-Difluoro-2-(2-fluoro-4-iodoanilino)-5-[[3-fluoro-2-(3-oxabicyclo[3.1.0]hexan-6-ylsulfamoylamino)pyridin-4-yl]methyl]benzamide] |  | microsomal CLint at 0.99 µM [1]: 47 µL/min/mg |
| 9 | CCNS(=O)(=O)Nc1nccc(Cc2cc(C(=O)NOCCO)c(Nc3ccc(I)cc3F)c(F)c2F)c1F [Sample A-44, 5-[[2-(Ethylsulfamoylamino)-3-fluoropyridin-4-yl]methyl]-3,4-difluoro-2-(2-fluoro-4-iodoanilino)-N-(2-hydroxyethoxy)benzamide] |  |  |
| 1 | NC(=O)c1cc(Cc2ccnc(NS(=O)(=O)NC3CCOCC3)c2F)c(F)c(F)c1Nc1ccc(I)cc1F [Sample A-29, 3,4-Difluoro-2-(2-fluoro-4-iodoanilino)-5-[[3-fluoro-2-(oxan-4-ylsulfamoylamino)pyridin-4-yl]methyl]benzamide] |  |  |
|  | NC(=O)c1cc(Cc2ccnc(NS(=O)(=O)NCC3COC3)c2F)c(F)c(F)c1Nc1ccc(I)cc1F [Sample A-21, 3,4-difluoro-2-(2-fluoro-4-iodoanilino)-5-[[3-fluoro-2-(oxetan-3-ylmethylsulfamoylamino)pyridin-4-yl]methyl]benzamide] | 3 |  |
|  | CC1(NS(=O)(=O)Nc2nccc(Cc3cc(C(N)=O)c(Nc4ccc(I)cc4F)c(F)c3F)c2F)CCC1 [Sample A-35, 3,4-difluoro-2-(2-fluoro-4-iodoanilino)-5-[[3-fluoro-2-[(1-methylcyclobutyl)sulfamoylamino]pyridin-4-yl]methyl]benzamide] | 2 |  |
